Experiments:
IL-6 = IL-6 (Homo sapiens, UniProt P05231); experiment: Immunoassay binding test, IL-6 (gp130 receptor, IL-6Ra present); settings: IL-6Ra 200 ng/ml
Experimental: (§1) Microtiter plates (96 wells) are covered with 100 μl of receptor per well, and incubated overnight at 4° C. The following day, after 2 washes in PBS/Tween20, the plates are saturated with 150 μl of PBS/BSA 2% per well, for 2 h at 37° C. Synthetic compounds are diluted in series (final concentrations: 100 to 0.78 μM) then a fixed amount of cytokine in PBS/BSA 1% is added to the compounds, in a final volume of 120 μl per well. […] The cytokine is diluted in series (six concentrations) in a final volume of 120 μl per well. The cytokine is used in the absence of small molecule as well as the range of SPD304 as positive controls and the absence of cytokine and synthetic molecule as negative control. The different mixtures are incubated for 2 h at 37° C. 100 μl of each mixture are then transferred to the microtiter plate, respecting the plate plan previously defined and incubated overnight at 4° C. After three washes, 100 μl of biotinylated anti-cytokine secondary antibody are added to each well, then incubated for 2 h at 37° C. After three washes, 100 μl of Avidin-HRP (1/500th dilution) are added and incubated for 30 minutes at 37° C. […] The plates are then read with a spectrophotometer at 450 nm, measuring the optical density for each well.
(§2) This binding test is carried out with different cytokines: TNFa, IL-4, IL-6 and IL-13. For IL-6, the incubation of molecules with the cytokine also requires the presence of IL-6Ra at a final concentration of 200 ng/ml.
(§3) The final concentrations used for each of the cytokines are presented below: […]

TNFa/TNFRI interaction = TNFa/TNFRI interaction (Homo sapiens, UniProt P01375); experiment: TNFa/TNFRI interaction displacement test; format: binding; settings: for Displacement (%): compounds at 50 μM, human TNFRI 100 ng/ml; for Displacement EC50 TNFa in presence of compound: Difference: Compound EC50 minus SPD304 EC50;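 as to Displacement EC50 TNFa in presence of compound: Difference: SPD304 reference at 20 µM final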
Experimental: Microtiter plates (96 wells) are covered with 100 μl per well of human TNFRI, at a concentration of 100 ng/ml, then incubated overnight at 4° C. The following day, after two washes in PBS/Tween20, the plates are saturated with 150 μl of PBS/BSA 2% for 2 h at 37° C.
100 μl of each mixture are then transferred to the microtiter plate, respecting the established plate plan and incubated overnight at 4° C.
After three washes, 100 μl of biotinylated anti-cytokine secondary antibody are added to each well and incubated for 2 h at 37° C. After three washes, 100 Avl Avidin-HRP (dilution 1/500th) are added and incubated for 30 minutes at 37° C. […] The plates are then read with a spectrophotometer at 450 nm, measuring the optical density (OD) for each well.

IL-13 = IL-13 (Homo sapiens, UniProt P35225); experiment: Immunoassay binding test, IL-13; settings: for IC50: IL-13 400 ng/ml, receptor 100 ng/ml, read-out: BINDING IL13 IC50
Experimental: as §1, with “The cytokine is used in the absence of small molecule as well as the range of SPD304 as positive controls and the absence of cytokine and synthetic molecule as negative control.” left out
as §2, §3

TNFα = TNFα (Homo sapiens, UniProt P01375); experiment: Immunoassay binding test, TNFa; settings: compounds 100 to 0.78 μM; TNFα 10 ng/ml, receptor 100 ng/ml; read-out: BINDING TNF IC50
Experimental: as §1, with “C.” for “C. Synthetic compounds are diluted in series (final concentrations: 100 to 0.78 μM) then a fixed amount of cytokine in PBS/BSA 1% is added to the compounds, in a final volume of 120 μl per well.”, “The cytokine is used in the absence of small molecule as well as the range of SPD304 as positive controls and the absence of cytokine and synthetic molecule as negative control.” left out
as §2, §3

IL-4 = biological target: T1, IL-4 (Homo sapiens, UniProt P05112); experiment: Immunoassay binding test, IL-4; settings: for IC50: IL-4 400 ng/ml, receptor 100 ng/ml, read-out: BINDING IL4 IC50
T1 sequence (P05112 25-153): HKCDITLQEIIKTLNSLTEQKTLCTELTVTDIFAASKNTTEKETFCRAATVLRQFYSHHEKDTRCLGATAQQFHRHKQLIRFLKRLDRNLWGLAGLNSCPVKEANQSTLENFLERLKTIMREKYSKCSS
Experimental: as §1, §2, §3

Sequence of TNFa/TNFRI interaction (P01375 77-233 limits assumed): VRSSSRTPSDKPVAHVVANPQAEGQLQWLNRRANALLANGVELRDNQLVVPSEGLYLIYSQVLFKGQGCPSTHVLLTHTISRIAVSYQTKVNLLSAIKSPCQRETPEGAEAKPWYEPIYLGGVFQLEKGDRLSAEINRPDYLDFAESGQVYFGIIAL
Sequence of TNFα (P01375 77-233 limits assumed, species assumed): as the sequence (P01375 77-233 limits assumed) above
Sequence of IL-6 (P05231 30-212, species assumed): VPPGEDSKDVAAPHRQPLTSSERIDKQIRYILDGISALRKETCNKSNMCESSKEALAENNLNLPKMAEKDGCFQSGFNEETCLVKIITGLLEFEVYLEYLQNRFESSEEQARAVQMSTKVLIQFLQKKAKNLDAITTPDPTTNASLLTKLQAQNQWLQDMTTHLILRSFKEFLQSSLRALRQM
Sequence of IL-13 (P35225 25-146, species assumed): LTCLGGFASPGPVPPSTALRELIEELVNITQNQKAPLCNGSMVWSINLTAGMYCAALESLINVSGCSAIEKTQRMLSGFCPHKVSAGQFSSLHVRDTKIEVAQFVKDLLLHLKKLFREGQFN

Structure (SMILES) | BINDING IL6 % Neutra at 100 μM (IL-6) [%] | Displacement (%) (TNFa/TNFRI interaction) | BINDING IL13 % Neutra at 100 μM (IL-13) [%] | IC50 (IL-13) [µM] | IC50 (TNFα) [µM] | BINDING IL4 % Neutra at 100 μM (IL-4) [%] | IC50 (IL-4) [µM] | Displacement EC50 TNFa in presence of compound: Difference (TNFa/TNFRI interaction) [ng/mL]
O=S(=O)(c1ccccc1)n1cc(CN(CCNC2CCCCC2)Cc2cccnc2)c2ccccc21 [Compound 25] | −15.3 | 99 | 61.2 | > 50 | 22.6 | 94.6 | 7.8 | –
O=S(=O)(c1ccccc1)n1cc(CN(CCNC2CCCCC2)Cc2ccncc2)c2ccccc21 [Compound 26] | −17.2 | 107 | 66 | > 50 | 14.1 | 95.5 | 8.4 | –
CN(CCN(Cc1cccnc1)Cc1cn(S(=O)(=O)c2ccccc2)c2ccccc12)C1CCCCC1 [Compound 27] | −12 | 121 | 53.9 | > 50 | 13.8 | 96.3 | 7.8 | –
CN(CCN(Cc1ccncc1)Cc1cn(S(=O)(=O)c2ccccc2)c2ccccc12)C1CCCCC1 [Compound 28] | 12.4 | 125 | 38.3 | > 50 | 14.5 | 96.6 | 8.1 | –
FC(F)(F)c1cccc(-n2cc(CN(CCNC3CCCCC3)Cc3ccncc3)c3ccccc32)c1 [Compound 29] | 17.3 | 103 | 86.8 | > 50 | 18.3 | 96.4 | 6.2 | –
FC(F)(F)c1cccc(-n2cc(CN(CCNC3CCCCC3)Cc3cccnc3)c3ccccc32)c1 [Compound 30] | 16.8 | 106 | 93.6 | > 50 | 19.9 | 97.3 | 4 | –
CN(CCN(Cc1ccncc1)Cc1cn(-c2cccc(C(F)(F)F)c2)c2ccccc12)C1CCCCC1 [Compound 31] | 1.7 | 120 | 81 | > 50 | 13.4 | 96 | 5.7 | –
CN(CCN(Cc1cccnc1)Cc1cn(-c2cccc(C(F)(F)F)c2)c2ccccc12)C1CCCCC1 [Compound 32] | 15.5 | 125 | 76.3 | > 50 | 15.9 | 97.7 | 3.9 | –
O=S(=O)(c1ccccc1)n1cc(CN(CCCCCNC2CCCCC2)Cc2cccnc2)c2ccccc21 [Compound 34] | −4.8 | 256 | 97.9 | > 50 | 7.2 | 95.4 | 5.9 | 9.9
CN(CCCCCN(Cc1ccncc1)Cc1cn(S(=O)(=O)c2ccccc2)c2ccccc12)C1CCCCC1 [Compound 35] | −21.5 | 181 | 97.1 | > 50 | 4.6 | 96.1 | 5.6 | –
CN(CCCCCN(Cc1cccnc1)Cc1cn(S(=O)(=O)c2ccccc2)c2ccccc12)C1CCCCC1 [Compound 36] | −1.8 | 165 | 95 | 19.8 | 3.9 | 97.4 | 3.4 | –

Next, values leading:

BINDING IL6 % Neutra at 100 μM (IL-6) [%] | Displacement (%) (TNFa/TNFRI interaction) | BINDING IL13 % Neutra at 100 μM (IL-13) [%] | IC50 (IL-13) [µM] | IC50 (TNFα) [µM] | BINDING IL4 % Neutra at 100 μM (IL-4) [%] | IC50 (IL-4) [µM] | Displacement EC50 TNFa in presence of compound: Difference (TNFa/TNFRI interaction) [ng/mL] | Structure (SMILES)
20.4 | 123 | 96.4 | 7.4 | 19.1 | 96.3 | 4 | – | FC(F)(F)c1cccc(-n2cc(CN(CCCCCNC3CCCCC3)Cc3ccncc3)c3ccccc32)c1 [Compound 37]
24.9 | 139 | 98.9 | 1.5 | > 50 | 95.7 | 3.9 | – | FC(F)(F)c1cccc(-n2cc(CN(CCCCCNC3CCCCC3)Cc3cccnc3)c3ccccc32)c1 [Compound 38]
23.7 | 159 | 94.8 | > 50 | 14.7 | 96 | 4.7 | 4.2 | CN(CCCCCN(Cc1ccncc1)Cc1cn(-c2cccc(C(F)(F)F)c2)c2ccccc12)C1CCCCC1 [Compound 39]
16.4 | 157 | 94.2 | 11.2 | 19.9 | 96.4 | 2.7 | 4.2 | CN(CCCCCN(Cc1cccnc1)Cc1cn(-c2cccc(C(F)(F)F)c2)c2ccccc12)C1CCCCC1 [Compound 40]
0 | 152 | 87.6 | 9.2 | 7 | 94.7 | 4.8 | 4.7 | O=S(=O)(c1ccccc1)n1cc(CN(Cc2cccc(F)n2)CC2CCCN(C3CCCCC3)C2)c2ccccc21 (stereo not shown) [Compound 41]
0 | 177 | 86.3 | 21.3 | 15.6 | 94.4 | 6.4 | 8.3 | Fc1ncccc1CN(Cc1cn(-c2cccc(C(F)(F)F)c2)c2ccccc12)CC1CCCN(C2CCCCC2)C1 (stereo not shown) [Compound 42]
